In patent US20120316138A1, “PPAR-SPARING THIAZOLIDINEDIONES AND COMBINATIONS FOR THE TREATMENT OF OBESITY AND OTHER METABOLIC DISEASES” (METABOLIC SOLUTIONS DEVELOPMENT COMPANY, LLC, priority 2009, published 2012):

What was measured:
[1] = system: brown adipose tissue precursor cells (UCP1); test: BAT differentiation: UCP1 protein by Western blot in BAT precursor cells; type: cell-based, mice; details: 7 days
Description: Precursors of BAT are isolated from the interscapular adipose pad of either normal or diabetic mice and cultured in vitro as described below based on the modifications recited in Petrovic N, Shabalina I G, Timmons J A, Cannon B, Nedergaard J. Am. J. Physiol. Endocrinol. Metab. 295:E287-E296, 2008, hereby incorporated by reference.
The brown fat pads are pooled and minced, digested for 45 minutes in isolation buffer containing 0.15% (wt/vol) collagenase. The cell suspension is filtered through a 100 un nylon filter and centrifuged at 200×g for 5 minutes. The pellet containing the preadipocytes is resuspended in 1.2 ml/animal of DMEM containing 10% FBS, 10 mM HEPES, 25 μg/ml sodium ascorbate, 100 U/ml penicillin, and 100 μg/ml streptomycin. The resuspended preadipocytes are distributed into 6 well plates and grown at 37° C. in an atmosphere of 10% CO2 in air with 80% humidity. The medium is changed on the first day and then every second day until confluent.
Cells are then treated with the compounds, compound salts, or co-crystals thereof being assayed for BAT differentiation. This treatment can occur simultaneously with, after, or before strategies to increase intracellular cyclic nucleotides. The development of the BAT phenotype is assessed by direct measure of the uncoupling protein 1 (UCP1), which is emblematic of brown adipose cells.
Following treatment of the cells, the growth medium is aspirated, rinsed with PBS, and lysed with KHM buffer containing 1% Igepal CA-630, and a protease inhibitor cocktail. The lysate is centrifuged at 8,000×g for 5 minutes (4° C.), the supernatant containing the cell lysate is collected and total protein analyzed using the BCA method. 20 μg/lane of cell lysate is run on 10-20% Tris glycine gels under reducing conditions and the proteins transferred to PVDF membranes. Western blotting is conducted using UCP1 polyclonal 1° antibody, an HRP conjugated 2° antibody, and imaged using enhanced chemiluminescence reagents and imaging film. Densitometry is conducted on the scanned films using ImageJ software and analyzed using GraphPad Prism software.

PGC-1α = test: Expression of PGC-1α mRNA in precursor BAT cells with norepinephrine (quantitative PCR); type: cell-based, mice; details: for PGC-1α message (mRNA): 3 μM compound for seven days, then 1 μM norepinephrine for 2 hours
Description: Another example of the ability of augmented signaling between cyclic nucleotides and compounds of Formula I is shown by the effect on expression of PGC-1α, a known regulator of mitochondrial biogenesis. Increased numbers of mitochondria are predictive of utility for the reduction of body weight.
Precursor BAT cells were isolated as described above and treated with or without 3 μM compounds: 1.] Compound A: 5-(4-(2-(5-ethylpyridin-2-yl)-2-oxoethoxy)benzyl)-1,3-thiazolidine-2,4-dione; 2.] Compound F: 5-((4-(2R)-2-(5-ethylpyridin-2-yl)-2-hydroxyethoxyl)benzyl)-1,3-thiazolidine-2,4-dione; or 3.] Compound G: 5-(4-(2-(3-methoxyphenyl)-2-oxoethoxy)benzyl)-1,3-thiazolidine-2,4-dione for seven days followed by treatment with 1 μM norepinephrine for 2 hours. Total RNA was isolated from the cells and the RNA message (mRNA) for PGC-1α was measured by quantitative polymerase chain reactions.

[2] = AUC of compound related materials after oral dosing of Compound G forms; type: in vivo; details: cynomolgus monkeys, 250 mg free acid equivalents, formulated tablets
Description: Referring to FIG. 9, the area under the curve (AUC) of compound related materials was compared following dosing of 250 mg of Compound G as powder in capsules of free acid (PIC), formulated tablets of micronized free acid, or formulated tablets of the Na or K salt of […] given at the same free acid equivalents. (N=4 cynomolgus monkeys). The formulated, compressed tablet also contained in each case approximately 40.5% lactose, 16.8% microcrystalline cellulose, 1.9% Croscarmellose sodium, 0.5% colloidal silicon dioxide, and 0.9% magnesium stearate.

[3] = Bioavailability of sodium salt of Compound A, oral capsule versus iv injection; type: in vivo; details: male cynomolgus monkeys, oral gavage, 90 mg free base equivalents in capsules, absolute availability versus iv
Description: The monkeys fasted overnight and were dosed by oral gavage washed down with 10 ml tap water. Blood samples were taken at 0.25, 0.5, 1, 2, 3, 4, 6, 9, 12, 24, and 48 hours after a single dosage was administered and assayed for drug related materials with a LCMS assay using an internal standard. 90 mg of drug was put in 00 gelatin capsules containing 90 mg of free base equivalents. This was compared to an iv injection of 2 ml/kg and 45 mg of free base solution in 50% hydroxypropyl b-cyclodextran. The absolute availability versus an iv injection was determined for both parent compound and major metabolite.

diabetic KKAy mouse = test: Blood glucose lowering in the diabetic KKAy mouse; type: in vivo; details: diabetic KKAy mice, gavage once daily, glucose measured after 4 daily doses
Description: In these experiments, free base or sodium salt was given to diabetic KKAy mice (N=6) and blood glucose was measured after 4 days of daily treatment at the doses indicated. KKAy mice, 8-12 weeks of age, were given the doses of the compounds according to the dosages on the X axis of FIG. 10. The compounds were given by gavage once daily at […]. On the fifth day (after 4 daily doses at the levels show) a blood sample was taken to measure plasma glucose.

In the case of `CCc1ccc(C(=O)COc2ccc(CC3SC(=O)NC3=O)cc2)nc1` (centres unmarked) [Compound A, 5-{4-[2-(5-ethylpyridin-2-yl)-2-oxoethoxy]benzyl}-1,3-thiazolidine-2,4-dione], the “amount of UCP1 (Western blot)” value ([1]; 0.1 to 10 μM) is reported as “dose-dependent increase” and the “PGC-1α message (mRNA)” value (PGC-1α) is reported as “an increase in PGC-1α message was observed”.
For `COc1cccc([C@H](F)COc2ccc(CC3SC(=O)NC3=O)cc2)c1` (stereo partly drawn) [Compound B, 5-(4-((S)-2-fluoro-2-(3-methoxyphenyl)ethoxy)benzyl)thiazolidine-2,4-dione], the “amount of UCP1 (Western blot)” value ([1]; 0.1 to 3 μM) was “dose-dependent increase”.
For `COc1cccc([C@@H](F)COc2ccc(CC3SC(=O)NC3=O)cc2)c1` (stereo partly drawn) [Compound C, 5-(4-((R)-2-fluoro-2-(3-methoxyphenyl)ethoxy)benzyl)thiazolidine-2,4-dione], the “amount of UCP1 (Western blot)” value ([1]; 0.1 to 3 μM) was “dose-dependent increase”.
With `CCc1ccc([C@H](F)COc2ccc(CC3SC(=O)NC3=O)cc2)nc1` (stereo partly drawn) [Compound D, 5-(4-((S)-2-(5-ethylpyridin-2-yl)-2-fluoroethoxy)benzyl)thiazolidine-2,4-dione] the “amount of UCP1 (Western blot)” value ([1]; 3 to 10 μM) was “dose-dependent increase”.
In the case of `CCc1ccc([C@@H](F)COc2ccc(CC3SC(=O)NC3=O)cc2)nc1` (stereo partly drawn) [Compound E, 5-(4-((R)-2-(5-ethylpyridin-2-yl)-2-fluoroethoxy)benzyl)thiazolidine-2,4-dione], the “amount of UCP1 (Western blot)” value ([1]; 3 to 10 μM) is reported as “dose-dependent increase”.
In the case of `CCc1ccc([C@@H](O)COc2ccc(CC3SC(=O)NC3=O)cc2)nc1` (stereo partly drawn) [Compound F, 5-((4-(2R)-2-(5-ethylpyridin-2-yl)-2-hydroxyethoxyl)benzyl)-1,3-thiazolidine-2,4-dione], the “PGC-1α message (mRNA)” value (PGC-1α) is reported as “an increase in PGC-1α message was observed”.
With `COc1cccc(C(=O)COc2ccc(CC3SC(=O)NC3=O)cc2)c1` (centres unmarked) [Compound G, 5-{4-[2-(3-methoxyphenyl)-2-oxoethoxy]benzyl}-1,3-thiazolidine-2,4-dione] the “PGC-1α message (mRNA)” value (PGC-1α) was “an increase in PGC-1α message was observed”.
For `NC[C@H](O)c1ccc(O)c(O)c1` [norepinephrine, reference compound], the “PGC-1α mRNA” value (PGC-1α; norepinephrine alone, 1 μM for 2 hours, absence of compound (control)) was “did not produce an increase”.
With `COc1cccc(C(=O)COc2ccc(CC3SC(=O)[N-]C3=O)cc2)c1.[K+]` (centres unmarked) [potassium salt of Compound G, Potassium 5-{4-[2-(3-methoxyphenyl)-2-oxoethoxy]benzyl}-2,4-dioxo-1,3-thiazolidin-3-ide] the “bioavailability (AUC of compound related materials) versus free acid counterparts” value [2] was “significantly higher bioavailability”.
For `CCc1ccc(C(=O)COc2ccc(CC3SC(=O)[N-]C3=O)cc2)nc1.[Na+]` (centres unmarked) [sodium salt of Compound A, Sodium 5-{4-[2-(5-ethylpyridin-2-yl)-2-oxoethoxy]benztl}-2,4-dioxo-1,3-thiazolidin-3-ide], the “bioavailability of major metabolite versus free base counterpart” value [3] was “significantly higher bioavailability”, the “bioavailability of parent compound versus free base counterpart” value [3] was “significantly higher bioavailability” and the lowering blood glucose (diabetic KKAy mouse) was “excellent dose response”.
In the case of `COc1cccc(C(=O)COc2ccc(CC3SC(=O)[N-]C3=O)cc2)c1.[Na+]` (centres unmarked) [sodium salt of Compound G, Sodium 5-{4-[2-(3-methoxyphenyl)-2-oxoethoxy]benztl}-2,4-dioxo-1,3-thiazolidin-3-ide], the “bioavailability (AUC of compound related materials) versus free acid counterparts” value [2] is reported as “significantly higher bioavailability”.
